The subject of series [1] is lethally irradiated BALB/c recipients of C57BL/6 (B6) donor bone marrow + T cells. The series can be described thus: Steroid GVHD prophylaxis and therapy in allogeneic BMT recipients. It is filed as in vivo, mouse. The conditions noted are these: for GVHD therapy outcome / survival vs vehicle: 10 mg/kg/day day 3-28, 1.5×10^6 T cells. The procedure:
FIG. 8 depicts steroid dose responses for GVHD prophylaxis in allogeneic BMT recipients. n=8 per group. BALB/c mice were lethally irradiated, given B6 BM+2 M T cells and steroids at the indicated doses from day 1-28. A low rapamycin dose (day 0-14, 3 times a week through day 27) was used as a comparator.
FIG. 9 depicts steroid based GVHD therapy in allogeneic BMT recipients. n=8 per group. BALB/c mice were lethally irradiated, given B6 BM+1.5 M T cells and steroids at 10 mg/kg/day day 3-28 or 4-28 as indicated.
FIG. 10 depicts steroid based GVHD therapy in allogeneic BMT recipients. n=15 (BM-Circles), 16 (Vehicle-Squares) and 25 (Prednisolone-Triangles). BALB/c mice were lethally irradiated, given B6 BM+1.5 M T cells and steroids at 10 mg/kg/day day 3-28.
To test whether gene modified (GR2-CRISPR/Cas9) or gene edited (GR2-CRISPR/Cas9/AAV-CaN mut.) Tregs have increased efficacy in vivo in the presence of glucocorticoid, how glucocorticoid (methyl-prednisolone) effects GVHD in preclinical mouse models was first determined. […] For these reasons, as well as the more logistically feasible and cost effective benefits of an allogeneic GVHD model, optimized steroid use in allogeneic recipients for GVHD prevention and therapy were first tested, and then applied to a xenogeneic model to enable testing of the human Treg product. Using lethally irradiated BALB/c recipients of C57BL/6 (B6) donor bone marrow+2×10^6 T cells, methyl-prednisolone at doses of 1, 3, and 6 mg/kg/dose were tested days 1-28 vs. rapamycin at 0.5 mg/kg/day, days 0-14 then 3×/week through day 27. The T cell dose was reduced to 1.5×10^6 and moved to GVHD therapy beginning on day 3 or day 4 (rather than day 1 prophylaxis) and compared no treatment to vehicle to prednisolone (n=8/group).
Delaying prednisolone treatment until day 4 was ineffective. Next, an experiment was performed to determine whether prednisolone at 10 mg/kg d3-28 was reproducible, and it was observed that this was the case (FIG. 10).

Another series has as its system xeno-GVHD model. The series can be described thus: Xenogeneic GVHD model (NSG mice given human PBMC). The format is in vivo. To be noted: 30 mg/kg, day 0-28. The procedure: FIGS. 11A-11D depicts the monitoring of GVHD in mice. Human PBMC (15×10^6) were injected into irradiated (50 rad) NSG mice±methylprednisolone (15 mg/kg), and signs of GVHD were monitored. FIG. 11A depicts a schematic illustration of the experiments indicating cohorts (n=7 mice each), dosing schedule, and analysis points. FIG. 11B depicts Kaplan-Meier survival curves for mice receiving PBMC only, or PBMC+prednisolone (p=0.104). FIG. 11C depicts disease progression monitored by weight loss (p=not significant). FIG. 11D depicts disease progression monitored by quantitating the number of PBMC-derived CD45+, CD4+, CD8+, and CD4+Foxp3+ T cells (p<0.03, <0.05, <0.03, and not significant, respectively). Animals were bled on day 19 for assessment.
FIGS. 12A-12D depicts the monitoring of GVHD in mice. […] FIG. 12B depicts Kaplan-Meier survival curves for mice receiving PBMC only, or PBMC+CNI (PBMC only vs. FK506 (36 mg/kg), p≤0.04). FIG. 12C depicts disease progression monitored by weight loss (p=not significant). FIG. 12D depicts disease progression monitored by quantitating the number of PBMC-derived CD45+, CD4+, CD8+, and CD4+Foxp3+ T cells (p<0.03, <0.05, <0.02, and not significant, respectively). Animals were bled on day 18 for assessment.
A follow up study has shown that xeno-GVHD pathology induced with 200 rad+1×10^7 human PBMC is more reproducible, and median survival is reduced from ˜25 days to ˜20 days.

For another series, the system named is exon 2 of NR3C1. The experiment in a line: Surveyor nuclease assay of NR3C1 gRNA candidates in human primary T-cells. To be noted: Cas9 with gRNA. The format is cell-based. The procedure: FIGS. 3A-3D depicts the process of gene editing of NR3C1 glucocorticoid receptor by CRISPR guide RNA and Cas9. FIG. 3A depicts a schematic illustrating the process of gene transfer. T cells or Tregs were harvested and activated with CD3/CD28 beads for 48 h (fresh) or 72 h (frozen). The Neon electroporation device was used to deliver Cas9 mRNA or protein with a gene specific guide RNA. FIG. 3B depicts a schematic illustrating NR3C1 gene targeting. Four sites in exon 2 were identified and tested. Four candidates were identified. The candidates were tested using the Surveyor method. FIG. 3C depicts a schematic illustrating the Surveyor assay. Gene modified (“mutant amplicon”) and unmodified (“wild type amplicon”) are hybridized resulting in homo- or heteroduplexes. Heteroduplexes caused by pairing of gene edited and wild type sequences are cleaved by the Surveyor enzyme resulting in predictable DNA fragments.
Using these parameters the use of CRISPR/Cas9 engineering of T-cells was pursued using the experimental schema as shown in FIG. 3A. Human primary T-cells were grown in the presence of IL-2 and activated with CD3/CD28 beads for 48-72 hours. The CRISPR/Cas9 reagents used a guide RNA transcript (Synthego) and recombinant Cas9 peptide (Aldevron) that were delivered using the Neon electroporation device (ThermoFisher). […]

For another series, the system named is NR3C1. The experiment in a line: Base editing of NR3C1 in Tregs (Sanger sequencing, EditR). The conditions noted are these: Tregs electroporated with base editor mRNA and guide RNA. It is filed as cell-based, human. From the text: Treg cells were base edited by electroporation of the base editor as protein or mRNA encoding said base editor, along with a guide RNA to target bases for editing with said base editor. The genomic DNA of the edited cells was then isolated and the target locus was PCR amplified. The PCR amplified locus was then sequenced by Sanger sequencing. Base conversion was observed by identifying multiple peaks at the target site. The PCR amplicon sequence data then underwent decomposition using the EDITR method to quantify base editing frequency (see, Kluesner et al. “EditR: A novel base editing quantification software using Sanger sequencing”.DOI: 10.1101/213496.2017). For FIGS. 19-22, and 24-27, the base edited sequences are marked by red open boxes.
FIG. 16 depicts a schematic showing base editing wherein the CRISPR deactivated or nicking DNA binding domain is a dCas9, and the base-editing domain is a cytidine deaminase. Base editors can be delivered as RNP complexes whereby the guide RNA may or may not be modified with phosphorothioate bonds to prevent intracellular degradation by endogenous RNAses. […] Further, the sequences at exon:intron boundaries defined as splice donors and acceptors that are required for intron excision and proper open reading frame orientation and expression were also targeted for conversion in order to disrupt splicing. […]

The next series has as its system Tregs. The experiment in a line: Survival of CRISPR/Cas9 NR3C1 knockout Tregs ± Dexamethasone. It is filed as cell-based, human. To be noted: Tregs electroporated with CRISPR/Cas9 RNP; Dexamethasone 30 μg/ml, 48 hours. As for the experimental part:
FIGS. 4A-4D depicts CRISPR/Cas9-mediated NR3C1 knockout in Tregs. Guide RNA candidates GR1 and GR2 were electroporated into activated Tregs as a ribonucleoprotein particle (RNP) with the Cas9 peptide. FIG. 4A depicts a schematic illustrating the culture process. FIG. 4B depicts a plot assessing the survival of Tregs after 72 h 30 μg/mL of Dexamethasone was added in the conditions as indicated. […] The NR3C1 locus was amplified from the pool of cells and indel analysis was performed by TIDE. The total gene modification rates were 35% and 44% for the pre- and post-Dexamethasone cells, respectively. The graph corresponds to the indel pattern observed in each population. […]
To determine whether the GR1 and GR2 guides were also capable of knocking out the NR3C1 locus in cultures of clinically-relevant Tregs, banked Tregs were thawed and re-stimulated with anti-CD3/28 beads in high dose IL-2 (300 U/ml). […] After 2 days, Treg cultures were harvested and were re-cultured±Dexamethasone (30 μg/ml) for an additional 48 hours (7 days total), at which time cultures were harvested, and relative survival was assessed by flow cytometry using a viability dye and counting beads. […] As such, the indel pattern using a sequence trace decomposition algorithm called TIDE (tracking of indels by decomposition) was assessed. Pre- and post-Dexamethasone exposure samples were analyzed (FIGS. 4C and 4D, respectively). […]

A further series relates to NR3C1 locus. The experiment in a line: Indel analysis of the NR3C1 locus by TIDE. It is filed as cell-based, human. The procedure: FIGS. 4A-4D depicts CRISPR/Cas9-mediated NR3C1 knockout in Tregs. Guide RNA candidates GR1 and GR2 were electroporated into activated Tregs as a ribonucleoprotein particle (RNP) with the Cas9 peptide. FIG. 4A depicts a schematic illustrating the culture process. FIG. 4B depicts a plot assessing the survival of Tregs after 72 h 30 μg/mL of Dexamethasone was added in the conditions as indicated. […] The NR3C1 locus was amplified from the pool of cells and indel analysis was performed by TIDE. The total gene modification rates were 35% and 44% for the pre- and post-Dexamethasone cells, respectively. The graph corresponds to the indel pattern observed in each population. Without being bound by any theory, it is predicted that out of frame indels (e.g., those non-divisible by three) will result in gene inactivation. Y-axis indicates the number of indels as a total percentage. X-axis indicates indels relative to unmodified (shown as bar in position 0). Deletions are shown to the left of the 0 position and each bar is between 1-10 bp away from the target site. Insertions of +1 bp are shown to the right of the 0 position. Asterisks show +1, −1, and −7 bp insertions/deletions and the frequency of these events increased with Dexamethasone exposure (comparing FIG. 4C with FIG. 4D), Dark black bars in FIGS. 4C-4D indicate editing events <0.5%.
To determine whether the GR1 and GR2 guides were also capable of knocking out the NR3C1 locus in cultures of clinically-relevant Tregs, banked Tregs were thawed and re-stimulated with anti-CD3/28 beads in high dose IL-2 (300 U/ml). On day 3, the Tregs were electroporated as above in the absence or presence of GR1 or GR2 GRISPR/Cas9 RNP and returned to culture in optimal expansion conditions. After 2 days, Treg cultures were harvested and were re-cultured±Dexamethasone (30 μg/ml) for an additional 48 hours (7 days total), at which time cultures were harvested, and relative survival was assessed by flow cytometry using a viability dye and counting beads. The dose of 30 μg/mL was identified by performing beta testing in Jurkat and primary T-cells that had undergone CRISPR/Cas9 gene modification and Dexamethasone dosing from 0-100 μg/mL. […] CRISPR/Cas9 gene repair by non-homologous endjoining results in insertions and deletions (indel) proximal to the gRNA binding site. As such, the indel pattern using a sequence trace decomposition algorithm called TIDE (tracking of indels by decomposition) was assessed. Pre- and post-Dexamethasone exposure samples were analyzed (FIGS. 4C and 4D, respectively). The frequency of out of frame indels that are predicted to result in gene inactivation in Tregs prior to Dexamethasone addition was ˜35%, which is similar to what was experimentally observed for peripheral blood T cells treated with GR2 GRISPR/Cas9 reagents (˜40%). Following culture in Dexamethasone, the frequency of indels increased to 44%. Without being bound by any theory, this indicates preferential survival of gene modified Tregs.

Another series relates to exon 2 of the NR3C1 gene. The series can be described thus: HDR in Tregs, inside-out PCR and Sanger sequencing. It is filed as cell-based, human. To be noted: AAV-6 donor at various MOI. The procedure: FIGS. 5A-5C depicts homology directed repair (HDR) in Tregs. FIG. 5A depicts the gene targeting strategy. A calcineurin resistant gene co-expressed with GFP was designed such that it could be targeted to exon 2 of the NR3C1 gene resulting in a loss of 21 amino acids. The donor was encapsulated in AAV-6 particles and screening was performed using an inside/out PCR with primers (indicated by horizontal arrows) within the donor and outside of the donor at the target locus. FIG. 5B depicts gene targeting optimization. Activated Tregs were electroporated with NR3C1 Cas9 RNPs and the different indicated amounts of AAV-6 donor were added. Inside/out PCR results are shown with Sanger sequencing confirmation of the junction between the donor and the adjacent locus sequence shown in FIG. 5C.
To achieve dual drug (steroid and calcineurin inhibitor) resistance, Jurkat and primary T-cells were used to define the conditions for optimal homology directed repair (HDR). Cas9 mRNA and Cas9 RNP approaches were compared and assessed for their ability to facilitate HDR using a reporter HDR construct at the human AAVS1 locus. […] Flanking the calcineurin resistance gene were donor targeting arms homologous to the NR3C1 gene such that insertion disrupted exon 2 with concomitant deletion of 21 amino acids (FIG. 5A). […]

In the case of `C[C@]12C=CC(=O)C=C1CC[C@@H]1[C@@H]2[C@@H](O)C[C@@]2(C)[C@H]1CC[C@]2(O)C(=O)CO` [prednisolone], the “GVHD therapy outcome / survival vs vehicle” value was “improved outcome” in series [1] and “significantly better than vehicle control” in series [1] (listed as Prednisolone). Further, in series [1] (treatment delayed until day 4), the GVHD therapy outcome was “ineffective”. The average weight result with xeno-GVHD model is listed as “not significantly different than controls”. Also, in the series with xeno-GVHD model, the survival advantage result is recorded as “did not offer a survival advantage”. The compound further registered a median survival with xeno-GVHD model (controls 29 days) of 25 days. Moreover, the “human CD4+ and CD8+ T cells in the blood” value in the series on xeno-GVHD model (day 19) is “significantly more human CD4+ and CD8+ T cells”.

“GR1: gRNA AACCAAAAGTCTTCGCTGCT (anti-sense), exon 2 of NR3C1 (guide AACCAAAAGUCUUCGCUGCU; RNA, backbone not given here; 5' and 3' phosphorothioate bonds)”: the “nuclease activity (Surveyor DNA fragmentation products)” value in the series on exon 2 of NR3C1 was “exhibited the highest activity levels”. In addition, the “base editing outcome at the genetic locus” value with NR3C1 was “premature TAA stop codon”.

“GR2: gRNA TTGAGAAGCGACAGCCAGTG (anti-sense), exon 2 of NR3C1 (guide UUGAGAAGCGACAGCCAGUG; RNA, backbone not given here; 5' and 3' phosphorothioate bonds)”: in the series on exon 2 of NR3C1, the “nuclease activity (Surveyor DNA fragmentation products)” value is given as “exhibited the highest activity levels”. Further, the “survival in the presence of Dexamethasone” value in the series with Tregs is reported as “significantly increased survival”. Further, the frequency of indels in the series with NR3C1 locus (Tregs following culture in Dexamethasone) is listed as 44%. In addition, the figures for the “frequency of out of frame indels” value in the series on NR3C1 locus (Tregs prior to Dexamethasone addition) and in the series on NR3C1 locus (peripheral blood T cells) were roughly 35% and roughly 40%, respectively. Also, the “total gene modification rate” value in the series on NR3C1 locus (post-Dexamethasone cells, FIG. 4D) came to 44%; in the series on NR3C1 locus (pre-Dexamethasone cells, FIG. 4C) it was 35%. In addition, in the series with exon 2 of the NR3C1 gene, the “HDR by inside-out PCR” value was “HDR was observed in Tregs at each MOI”. Also, in the series with NR3C1, the “base editing outcome at the genetic locus” value is “premature TAG stop codon”.

The record behind these values is patent publication US12343397B2, “Drug-resistant immune cells and methods of use thereof” (Regents of the University of Minnesota, priority 2018, dated 2025).
